Laboratory results: ChEMBL document CHEMBL4411312, “Design, Synthesis, and Biological Evaluation of New 1-(Aryl-1 H-pyrrolyl)(phenyl)methyl-1 H-imidazole Derivatives as Antiprotozoal Agents” (J Med Chem, 2019)
Calls of active or inactive are those of the source. The rule behind the calls is not given here.

How the values were obtained:
[1] = system: Trypanosoma brucei rhodesiense; assay: Antiprotozoal activity against Trypanosoma brucei rhodesiense STIB900 trypomastigotes after 72 hrs by Alamar Blue dye-based fluorometric analysis; assay type: functional, organism-based; conditions: STIB900, 72 h
Trypanosoma cruzi [2] = assay: Antiprotozoal activity against Trypanosoma cruzi Tulahuen C2C4 amastigotes infected in rat L6 cells after 96 hrs by inverted microscopic analysis; assay type: functional, organism-based; conditions: Tulahuen C2C4, L6, 96 h
Leishmania donovani = assay: Antiprotozoal activity against Leishmania donovani MHOM/ET/67/L82 axenic amastigote after 72 hrs by inverted microscopic analysis; assay type: functional, organism-based; conditions: MHOM/ET/67/L82, 72 h
Plasmodium falciparum = assay: Antiprotozoal activity against erythrocytic stage of Plasmodium falciparum K1 after 48 hrs by [3H]- hypoxanthine incorporation assay; assay type: functional, organism-based
[3] = Cytotoxicity against rat L6 cels assessed as reduction in cell viability after 72 hrs by Alamar Blue dye-based fluorometric analysis; conditions: L6 cells
[4] = Selectivity index, ratio of CC50 for rat L6 cels to IC50 for Leishmania donovani MHOM/ET/67/L82 axenic amastigote; assay type: toxicity; conditions: L6 cells, read-out: Ratio IC50
[5] = Selectivity index, ratio of CC50 for rat L6 cels to IC50 for erythrocytic stage of Plasmodium falciparum K1; assay type: toxicity; conditions: L6 cells, read-out: Ratio IC50
Cytochrome P450 3A4 = Cytochrome P450 3A4 (Homo sapiens, UniProt P08684); assay: Inhibition of human CYP3A4 in presence of NADPH by luciferase reporter gene assay; assay type: ADME
Chain of Cytochrome P450 3A4 (P08684 whole entry): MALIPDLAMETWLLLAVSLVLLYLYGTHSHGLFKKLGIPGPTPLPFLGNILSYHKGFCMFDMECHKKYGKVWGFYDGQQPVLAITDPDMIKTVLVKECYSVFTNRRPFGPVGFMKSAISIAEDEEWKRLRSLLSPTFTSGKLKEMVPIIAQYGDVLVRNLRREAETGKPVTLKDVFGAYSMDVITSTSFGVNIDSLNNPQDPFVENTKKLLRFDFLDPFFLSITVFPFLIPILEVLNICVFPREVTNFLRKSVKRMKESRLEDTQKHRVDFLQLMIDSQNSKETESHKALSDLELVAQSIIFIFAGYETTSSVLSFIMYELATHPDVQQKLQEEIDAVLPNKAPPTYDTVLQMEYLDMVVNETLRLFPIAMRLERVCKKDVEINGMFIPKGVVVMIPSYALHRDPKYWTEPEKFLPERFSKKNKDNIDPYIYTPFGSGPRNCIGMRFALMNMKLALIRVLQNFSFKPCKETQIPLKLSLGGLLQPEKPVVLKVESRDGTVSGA

Trypanosoma cruzi [6] = assay: Potency index, ratio of benznidazole IC50 to compound IC50 for Trypanosoma cruzi Tulahuen C2C4 amastigotes infected in rat L6 cells after 96 hrs by inverted microscopic analysis; assay type: functional
Cytochrome P450 1A2 = biological target: T1, Cytochrome P450 1A2 (Homo sapiens, UniProt P05177); assay: Inhibition of human CYP1A2 in presence of NADPH by luciferase reporter gene assay; assay type: ADME
T1 sequence (P05177 whole entry): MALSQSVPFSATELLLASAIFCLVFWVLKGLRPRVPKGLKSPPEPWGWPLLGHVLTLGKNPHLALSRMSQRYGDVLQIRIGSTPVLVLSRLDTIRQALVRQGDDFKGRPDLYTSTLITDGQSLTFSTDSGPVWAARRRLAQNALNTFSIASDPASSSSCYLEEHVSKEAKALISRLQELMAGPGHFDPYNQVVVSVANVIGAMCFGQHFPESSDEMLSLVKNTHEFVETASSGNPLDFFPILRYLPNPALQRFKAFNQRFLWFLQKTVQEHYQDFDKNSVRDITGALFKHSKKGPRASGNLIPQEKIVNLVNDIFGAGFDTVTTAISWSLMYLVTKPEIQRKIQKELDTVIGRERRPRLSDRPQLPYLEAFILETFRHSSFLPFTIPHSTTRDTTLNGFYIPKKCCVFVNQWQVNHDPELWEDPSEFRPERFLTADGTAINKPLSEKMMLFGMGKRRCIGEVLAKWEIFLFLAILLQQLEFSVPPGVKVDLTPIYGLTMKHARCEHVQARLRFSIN

Cytochrome P450 2D6 = Cytochrome P450 2D6 (Homo sapiens, UniProt P10635); assay: Inhibition of human CYP2D6 in presence of NADPH by luciferase reporter gene assay; assay type: ADME
Chain of Cytochrome P450 2D6 (P10635 whole entry): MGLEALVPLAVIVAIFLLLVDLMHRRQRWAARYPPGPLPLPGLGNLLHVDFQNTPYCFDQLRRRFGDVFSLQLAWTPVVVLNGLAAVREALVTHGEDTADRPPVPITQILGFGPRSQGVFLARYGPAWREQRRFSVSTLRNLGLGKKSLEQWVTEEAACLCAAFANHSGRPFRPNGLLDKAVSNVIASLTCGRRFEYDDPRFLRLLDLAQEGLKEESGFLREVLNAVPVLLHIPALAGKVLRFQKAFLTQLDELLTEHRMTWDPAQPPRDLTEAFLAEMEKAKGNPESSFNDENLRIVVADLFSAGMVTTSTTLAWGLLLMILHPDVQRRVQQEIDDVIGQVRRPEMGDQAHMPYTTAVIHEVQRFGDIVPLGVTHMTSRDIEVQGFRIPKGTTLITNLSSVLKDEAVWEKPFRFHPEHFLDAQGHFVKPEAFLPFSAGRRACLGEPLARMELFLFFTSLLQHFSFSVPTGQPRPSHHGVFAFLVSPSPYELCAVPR

[7] = biological target: Sterol 14-alpha demethylase (Trypanosoma cruzi (strain CL Brener)) (UniProt Q7Z1V1); assay: Binding affinity to Trypanosoma cruzi CYP51 at 5 to 10 uM by UV-vis spectrophotometry
Chain of Sterol 14-alpha demethylase (Trypanosoma cruzi (strain CL Brener)) (Q7Z1V1 whole entry, looked up): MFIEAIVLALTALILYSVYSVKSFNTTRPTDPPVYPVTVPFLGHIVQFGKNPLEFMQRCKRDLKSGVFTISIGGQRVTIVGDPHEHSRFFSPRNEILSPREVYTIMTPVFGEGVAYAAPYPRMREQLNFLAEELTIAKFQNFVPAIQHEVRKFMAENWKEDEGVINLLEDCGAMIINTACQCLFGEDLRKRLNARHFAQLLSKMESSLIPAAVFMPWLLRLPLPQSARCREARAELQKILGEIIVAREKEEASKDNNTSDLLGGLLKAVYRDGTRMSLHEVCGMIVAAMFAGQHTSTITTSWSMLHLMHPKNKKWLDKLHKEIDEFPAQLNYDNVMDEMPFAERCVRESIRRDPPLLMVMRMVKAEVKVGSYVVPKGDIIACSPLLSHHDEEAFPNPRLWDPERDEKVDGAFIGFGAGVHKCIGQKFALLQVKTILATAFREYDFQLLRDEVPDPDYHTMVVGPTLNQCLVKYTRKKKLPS

Trypanosoma cruzi [8] = assay: Antiprotozoal activity against Trypanosoma cruzi CL Brener trypomastigotes infected in BALB/c mouse assessed as reduction in parasitemia at 25 mg/kg, ip bid treated for 4 consecutive days starting at 3 days post infection by bioluminescence assay relative to control; assay type: functional; parameters: scale not given: the % may be the effect or the level left
[9] = Toxicity in BALB/c mouse infected with Trypanosoma cruzi CL Brener trypomastigotes assessed as hunched posture at 25 mg/kg, ip bid treated for 4 consecutive days starting at 3 days post infection; assay type: organism-based; conditions: in vivo, 72 h
[10] = Toxicity in BALB/c mouse infected with Trypanosoma cruzi CL Brener trypomastigotes assessed as lack of grooming at 25 mg/kg, ip bid treated for 4 consecutive days starting at 3 days post infection; assay type: organism-based; conditions: in vivo, 72 h
[11] = Toxicity in BALB/c mouse infected with Trypanosoma cruzi CL Brener trypomastigotes assessed as reduced mobility at 25 mg/kg, ip bid treated for 4 consecutive days starting at 3 days post infection; assay type: organism-based; conditions: in vivo, 72 h
[12] = Toxicity in BALB/c mouse infected with Trypanosoma cruzi CL Brener trypomastigotes assessed as loss of body weight at 25 mg/kg, ip bid treated for 4 consecutive days starting at 3 days post infection; assay type: organism-based; conditions: in vivo, 72 h
[13] = biological target: Sterol 14-alpha demethylase (Trypanosoma cruzi (strain CL Brener), UniProt Q7Z1V1); assay: Binding affinity to Trypanosoma cruzi CYP51 by UV-vis spectrophotometry
Chain of Sterol 14-alpha demethylase (Q7Z1V1 whole entry): as the sequence (Q7Z1V1 whole entry, looked up) above

CYP1A2 = biological target: T2, CYP1A2 (Homo sapiens, UniProt P05177); assay: Safety index, ratio of IC50 for test compound to IC50 for furafylline for inhibition of human CYP1A2 in presence of NADPH by luciferase reporter gene assay; assay type: ADME; conditions: read-out: Ratio IC50
T2 sequence (P05177 whole entry): T1 sequence (P05177 whole entry)

Row | IC50 [1] [µM] | IC50 (Trypanosoma cruzi [2]) [µM] | IC50 (Leishmania donovani) [µM] | IC50 (Plasmodium falciparum) [µM] | IC50 (Cytochrome P450 3A4) [µM] | IC50 (Cytochrome P450 1A2) [µM] | IC50 (Cytochrome P450 2D6) [µM] | Activity [7] | Kd [13] [µM] | Structure (SMILES) | CC50 at 72 h [3] [µM] | selectivity ratio [4] | selectivity ratio [5] | Ratio IC50 (Trypanosoma cruzi [6]) | Activity (Trypanosoma cruzi [8]) [%] | Activity [9] | Activity [10] | Activity [11] | Activity [12] | selectivity ratio (CYP1A2)
1 | 38.7 | 0.002 | 2.16 | 0.63 | 0.9 | 1.2 | 2 | Active |  | C=CCn1cc(C(c2ccc(Cl)cc2)n2ccnc2)cc1-c1ccc(Cl)cc1 (stereo unspecified) | 7.76 | 4 | 12 | 330 - 825 |  |  |  |  |  | 
2 | 7.39 | 0.003 | 3.01 | 0.78 | 1.4 | 0.4 | 4 |  | 5.5 | Clc1ccc(-c2cc(C(c3ccc(Cl)cc3)n3ccnc3)c[nH]2)cc1 (stereo unspecified) | 6.65 | 2 | 9 | 330 - 825 | 99.5 | Non-Toxic | Non-Toxic | Non-Toxic | Non-Toxic | 
3 |  | 0.035 |  |  | 0.8 | 7 | 1.3 |  |  | Clc1ccc(-c2c[nH]cc2C(c2ccc(Cl)cc2Cl)n2ccnc2)cc1 (racemic) |  |  |  |  |  |  |  |  |  | 3
4 | 40 | 0.003 | 5.7 | 1.41 | 1.1 | 2 | 3 | Active |  | Cn1cc(C(c2ccc(Cl)cc2)n2ccnc2)cc1-c1ccc(Cl)cc1 (stereo unspecified) | 12.1 | 2 | 9 | 330 - 825 | 99.4 | Non-Toxic | Non-Toxic | Non-Toxic | Non-Toxic | 
